The results in this text go back to patent EP4782453A1 (Beyang Therapeutics Co., Ltd., priority 2023, dated 2025).

The first assay concerns the target T1, Menin-MLL (Homo sapiens, UniProt O00255).
T1 construct: His-Menin (M1-L615 end); purchased BIORTUS BP9210
T1 sequence (O00255 1-615 isoform O00255-1): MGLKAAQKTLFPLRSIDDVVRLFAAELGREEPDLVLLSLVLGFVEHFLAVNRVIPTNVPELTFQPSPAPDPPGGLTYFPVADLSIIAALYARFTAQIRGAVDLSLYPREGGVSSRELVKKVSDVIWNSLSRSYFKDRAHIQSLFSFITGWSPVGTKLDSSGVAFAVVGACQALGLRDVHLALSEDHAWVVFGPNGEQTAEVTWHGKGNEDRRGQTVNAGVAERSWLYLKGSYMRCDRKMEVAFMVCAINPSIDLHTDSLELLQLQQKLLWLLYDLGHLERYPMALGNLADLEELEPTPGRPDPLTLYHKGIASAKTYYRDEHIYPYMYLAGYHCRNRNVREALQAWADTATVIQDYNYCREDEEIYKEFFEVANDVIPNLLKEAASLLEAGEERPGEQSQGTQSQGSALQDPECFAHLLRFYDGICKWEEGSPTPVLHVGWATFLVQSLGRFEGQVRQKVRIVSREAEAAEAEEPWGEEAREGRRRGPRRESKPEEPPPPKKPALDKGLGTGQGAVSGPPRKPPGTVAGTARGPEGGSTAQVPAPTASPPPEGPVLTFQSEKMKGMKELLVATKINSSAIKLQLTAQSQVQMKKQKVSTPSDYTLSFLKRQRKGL
The assay can be described thus: Inhibitory activity against Menin-MLL binding (fluorescence polarization). The settings on record: Menin-MLL IC50, fluorescence polarization; 150 nM His-Menin, 15 nM FITC-MLL; 25°C for 60 min. The method, then: • His-Menin (M1-L615 end), purchased from BIORTUS, Catalog Number: BP9210; and • FITC-MLL4-43, purchased from GenScript, Catalog Number: C491HFF190-3/PE1324.
In a 10 µL reaction solution (20 mM HEPES, pH 7.5, 50 mM NaCl, 1 mM DTT, 0.01% BSA) containing any compound from the examples, 150 nM His-Menin was added to a 384-well plate (Corning, Model: 4514). Each concentration was set up in duplicate wells. After centrifugation at 1000 RPM for 1 min, the plate was incubated at 25°C for 15 min. Then, 15 nM […] (20 mM HEPES, pH 7.5, 50 mM NaCl, 1 mM DTT, 0.01% BSA) was added to a 384-well plate. After centrifugation at 1000 RPM for 1 min, the reaction proceeded at 25°C for 60 min. Changes in fluorescence polarization were measured using a plate reader (PerkinElmer, Envision 2104). Based on the measured signals, the binding inhibition rate of the compound at each concentration was calculated, and the IC50 (half-maximal inhibitory concentration) of the compound was determined using statistical analysis software GraphPad Prism (GraphPad Software, Inc.) by means of a nonlinear fitting formula: 4-Parameter Logistic Model or Sigmoidal Dose-Response Model: Y = Bottom + (Top−Bottom)/(1 + 10^((LogIC50−X) × Hill Slope)), [formula] in which X indicates the logarithm of compound concentration, Y indicates a fluorescence polarization mP value, and Top and Bottom indicate the maximum and minimum readouts of fluorescence polarization mP values. Table 1: Inhibitory Activity of Compounds Against Menin-MLL Binding
(In fluorescence polarisation assays a small probe gives low polarisation when free and higher when bound to something large.)
As usually defined, the IC50 is the concentration at which inhibition is half-maximal. `CCN(C(=O)c1cc(F)ccc1-c1cc(C2CCN(C(=O)[C@@H]3CCCCN3)C2)cn2c(C)ncc12)C(C)C` (stereo partly drawn) [Example 97] displayed an IC50 of 210 nM.

Consider `CCN(C(=O)c1cc(F)ccc1-c1cc(C2CCN(C[C@]3(F)CC[C@H](NS(=O)(=O)CC)CC3)C2)cn2c(C)ncc12)C(C)C` (stereo partly drawn) [Compound 51, N-ethyl-5-fluoro-2-[3-methyl-6-(1-{[(1r,4r)-4-ethanesulfonamido-1-fluorocyclohexyl]methyl}pyrrolidin-3-yl)imidazo[1,5-a]pyridin-8-yl]-N-(isopropyl)benzamide], for which the IC50 was determined as 64 nM. Same read-out and setting: in the case of `CCS(=O)(=O)N[C@H]1CC[C@H](C(C)N2CC(c3cc(-c4ccc(F)cc4C(=O)N4CCOC[C@H]4C)c4cnn(C)c4c3)C2)CC1` (stereo partly drawn) [Example 178, N-[(1r,4r)-4-{1-[3-(4-{4-fluoro-2-[(3R)-3-methylmorpholin-4-carbonyl]phenyl}-1-methyl-1H-indazol-6-yl)azacyclobutan-1-yl]ethyl}cyclohexyl]ethan-1-sulfonamide] it was 115 nM; in that of `CCN(C(=O)c1cc(F)ccc1-c1cc(C2CCN(C[C@H]3CC[C@H](NS(=O)(=O)CC)CC3)C2)cc2cnc(C)n12)C(C)C` (mixture of isomers) [Example 35, N-ethyl-5-fluoro-2-[3-methyl-7-(1-{[(1r,4r)-4-ethanesulfonamidocyclohexyl]methyl}pyrrolidin-3-yl)imidazo[1,5-a]pyridin-5-yl]-N-(isopropyl)benzamide], 39.5 nM. The compound `CCN(C(=O)c1cc(F)ccc1-c1cc([C@H]2CCN(C[C@H]3CC[C@H](NS(=O)(=O)CC)CC3)C2)nc2c1cnn2C)C(C)C` [Example 11-2, N-ethyl-5-fluoro-2-{1-methyl-6-[(3S)-1-{[(1r,4r)-4-ethanesulfonamidocyclohexyl]methyl}pyrrolidin-3-yl]-1H-pyrazolo[3,4-b]pyridin-4-yl}-N-(isopropyl)benzamide] had a half-inhibitory concentration (IC50) of 65.5 nM.

The assay is the same for the next values; noted with them: fluorescence polarization; 150 nM His-Menin, 15 nM FITC-MLL; 25°C for 60 min; read-out: Menin-MLL IC50.
Turning to `Cc1nc(F)c2c(-c3ccc(F)cc3C(=O)N3CCOC[C@H]3C)cc(C3CN(C(CC[C@H]4CN(C)CCO4)C(C)C)C3)cn12` (stereo partly drawn) [Example 308, (3R)-4-{5-fluoro-2-[1-fluoro-3-methyl-6-(1-{4-methyl-1-[(2S)-4-methylmorpholin-2-yl]pentan-3-yl}azacyclobutan-3-yl)imidazo[1,5-a]pyridin-8yl]benzoyl}-3-methylmorpholine], the IC50 amounted to 49 nM.

`CCN(C(=O)c1cc(F)ccc1-c1cc(C2CN([C@@H](CCCN3CCC(OCCO)CC3)C(C)C)C2)cc2c1cnn2C)C(C)C` [Example 401-1]: the IC50 was determined as 130 nM. With `Cc1ncc2c(-c3ccc(F)cc3C(=O)N(C)C(C)C)cc(C3CN([C@@H](CCCN4CCN(CCO)CC4)C(C)C)C3)cn12` [Example 448-1], the IC50 is 120 nM. On the same count and under the same terms, under `CCN(C(=O)c1cc(F)ccc1-c1cc(C2CN([C@@H](CCCN3CCN(C)CC3)C(C)C)C2)cn2c(C)ncc12)C(C)C` [Example 310-1, N-ethyl-5-fluoro-2-(3-methyl-6-{1-[(3S)-2-methyl-6-(4-methylpiperazin-1-yl)hexan-3-yl]azacyclobutan-3-yl}imidazo[1,5-a]pyridin-8-yl)-N-(isopropyl)benzamide] stands 31 nM. As for `CCN(C(=O)c1cc(F)ccc1-c1cc(C2CN([C@H](CCCN3CCN(C4(CC#N)COC4)CC3)C(C)C)C2)cn2c(C)ncc12)C(C)C` [Example 490, 2-(6-{1-[(3R)-6-{4-[3-(cyanomethyl)oxacyclobutan-3-yl]piperazin-1-yl}-2-methylhexan-3-yl]azacyclobutan-3-yl}-3-methylimidazo[1,5-a]pyridin-8-yl)-N-ethyl-5-fluoro-N-(isopropyl)benzamide], the concentration for half-maximal inhibition (IC50) amounted to 2.9 nM.

For the compound `COCC(=O)N1CCC(CN2CC(c3cc(-c4ccc(F)cc4C(=O)N4CCOC[C@H]4C)c4c(F)nc(C)n4c3)C2)CC1` [Example 241, 1-(4-{[3-(1-fluoro-8-{4-fluoro-2-[(3R)-3-methylmorpholin-4-carbonyl]phenyl}-3-methylimidazo[1,5-a]pyridin-6-yl)azacyclobutan-1-yl]methyl}piperidin-1-yl)-2-methoxyethan-1-one], the IC50 came to 31.5 nM.

Regarding `CCS(=O)(=O)N[C@@H]1CC[C@@H](CN2CC[C@@H](c3cc(-c4ccc(F)cc4C(=O)N(CC(F)F)C(C)C)c4cnc(C)n4c3)C2)OC1` [Example 163-1, N-(2,2-difluoroethyl)-2-{6-[(3S)-1-{[(2S,5R)-5-ethanesulfonamidooxacyclohexan-2-yl]methyl}pyrrolidin-3-yl]-3-methylimidazo[1,5-a]pyridin-8-yl}-5-fluoro-N-(isopropyl)benzamide], the 50% inhibitory concentration (IC50) was 47 nM. The same measure, in the same setting: under `CCN(C(=O)c1cc(F)ccc1-c1cc(N2CCN(C[C@H]3CC[C@H](NS(=O)(=O)CC)CC3)CC2)cn2c(C)ncc12)C(C)C` [Example 84] stands 165 nM; under `CCN(C(=O)c1cc(F)ccc1-c1cc(C2CN([C@@H](C)C3CCN(C(=O)NC)CC3)C2)cn2c(C)nc(F)c12)C(C)C` [Example 283-2], 2 nM; under `CC(=O)N1CCC(CN2CC(c3cc(-c4ccc(F)cc4C(=O)N4CCOC[C@H]4C)c4cnn(C)c4c3)C2)CC1` [Example 177], 217 nM. Still for that read-out and setting: in the case of `CCN(C(=O)c1cc(F)ccc1-c1nc(C2CN([C@H](CCCN3CCN(CCC#N)CC3)C(C)C)C2)cn2c(C)ncc12)C(C)C` [Example 492] it was 270 nM. Still for that read-out and setting: in the case of `COC[C@@H]1CN(CCC[C@@H](C(C)C)N2CC(c3cc(-c4ccc(F)cc4C(=O)N(C(C)C)C(C)C)c4cnc(C)n4c3)C2)CCN1` [Example 505-1] it was 22 nM; in that of `CCN(C(=O)c1cc(F)ccc1-c1cc(C2CN([C@@H](CN3C[C@@H](O)[C@H](O)C3)C(C)C)C2)cn2c(C)ncc12)C(C)C` [Example 446-2, 2-(6-{1-[(2R)-1-[(3R,4R)-3,4-dihydroxylpyrrolidin-1-yl]-3-methylbutan-2-yl]azacyclobutan-3-yl}-3-methylimidazo[1,5-a]pyridin-8-yl)-N-ethyl-5-fluoro-N-(isopropyl)benzamide], 44 nM.

As to `CCN(C(=O)c1cc(F)ccc1-c1cc(C2CCN(C[C@H]3CC[C@H](NC(=O)OC(C)(C)C)CC3)C2)cn2cncc12)C(C)C` (mixture of isomers) [Example 21, N-[(1r,4r)-4-{[3-(8-{2-[ethyl(isopropyl)aminoformyl]-4-fluorophenyl}imidazo[1,5-a]pyridin-6-yl)pyrrolidin-1-yl]methyl}cyclohexyl]tert-butyl carbamate], the half-inhibitory concentration (IC50) turned out to be 18.5 nM. Consider `CCS(=O)(=O)N[C@H]1CC[C@H](CCN2CC(c3cc(-c4ccc(F)cc4C(=O)N4CCOC[C@H]4C)c4cnn(C)c4c3)C2)CC1` [Example 160], for which the IC50 came to 62 nM. Still for that read-out and setting: under `CCN(C(=O)c1cc(F)ccc1-c1cc(C2CCN(C(=O)[C@H]3N[C@@H]4CC[C@H]3C4)C2)cc2c1cnn2C)C(C)C` (stereo partly drawn) [Example 31, 2-(6-{1-[(1R,3S,4S)-2-azabicyclo[2.2.1]heptan-3-carbonyl]pyrrolidin-3-yl}-1-methyl-1H-indazol-4-yl)-N-ethyl-5-fluoro-N-(isopropyl)benzamide] stands 275 nM; under `CCN(C(=O)c1cc(F)ccc1-c1cc(C2CCN(CC3CCC(NS(=O)(=O)CC)CC3)C2)cn2c(C)nnc12)C(C)C` (stereo not drawn) [Example 80, 2-(6-{1-[(4-ethanesulfonamidocyclohexyl)methyl]pyrrolidin-3-yl}-3-methyl-[1,2,4]triazolo[4,3-a]pyridin-8-yl)-N-ethyl-5-fluoro-N-(isopropyl)benzamide], 122 nM. On the same count and under the same terms, under `CCN(C(=O)c1cc(F)ccc1-c1cc(N2CCN(C(=O)[C@H]3N[C@@H]4CC[C@H]3C4)CC2)cn2cncc12)C(C)C` [Compound 40, 2-(6-{4-[(1R,3S,4S)-2-azabicyclo[2.2.1]heptan-3-carbonyl]piperazin-1-yl}imidazo[1,5-a]pyridin-8-yl)-N-ethyl-5-fluoro-N-(isopropyl)benzamide] stands 83 nM. Still for that read-out and setting: under `CCS(=O)(=O)N[C@H]1CC[C@H](CN2CC(c3cc(-c4ccc(F)cc4C(=O)N4CCOC[C@@H]4C)c4cnc(C)n4c3)C2)CC1` [Example 135] stands 102 nM.
